Results from EP0194905A1, “5',5'''-P1,P4-diadenosine-tetraphosphate alpha-,beta-phosphorylase and its use in the preparation of isotope-labelled nucleotides” (priority 1985, dated 1986).

Tests used:
Ap4A-phosphorylase [1] = target: T1, Ap4A-phosphorylase (Saccharomyces cerevisiae, UniProt P16550); test: Ap4A-phosphorylase activity: initial rates of phosphorolysis of Ap4A and related substrates (PEI-cellulose TLC, radioactivity); format: biochemical; settings: for substrat de l'Ap4A-phosphorylase (behaviour as substrate): compounds structurally related to Ap4A, in presence of phosphate; for vitesses de phosphorolyse, % du taux observé pour l'Ap4A: standard incubation medium, 500 uM substrate; for conversion de l'Ap4A when phosphate is replaced: 10 mM in place of phosphate, 500 µM MnCl2 or 5 mM MgCl2
T1 construct: l'Ap4A phosphorylase est constituée d'une seule chaîne; endogenous in cells; host or cells: Saccharomyces cerevisiae yeast cells; enzyme purified by ammonium sulfate, DEAE-Sephacel, Sephadex G-100, hydroxyapatite and Sephadex G-75 superfine
T1 sequence (P16550 1-321): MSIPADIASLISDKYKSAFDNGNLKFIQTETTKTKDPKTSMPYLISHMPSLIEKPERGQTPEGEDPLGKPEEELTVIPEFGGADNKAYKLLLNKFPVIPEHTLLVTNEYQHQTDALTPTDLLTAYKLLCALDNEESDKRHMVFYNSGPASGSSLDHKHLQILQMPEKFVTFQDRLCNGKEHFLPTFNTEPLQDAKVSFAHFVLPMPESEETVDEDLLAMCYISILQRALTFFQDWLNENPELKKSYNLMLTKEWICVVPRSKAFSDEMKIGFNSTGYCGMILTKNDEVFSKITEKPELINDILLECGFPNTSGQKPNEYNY
Experimental: (§1) L'activité de l'Ap4A-phosphorylase a été déterminée à 37°C. Le mélange d'incubation standard contenait, dans un volume final de 25 ou 50 µl, du tampon 50 mM acide 4-(2-hydroxyéthyl)-1-pipérazine éthane sulfonique (Hepes)/KOH (pH 8,2), 1 mM 2-mercaptoéthanol, 2 % de glycérol, 500 µM MnCl2, […], 500 uM de [^3H]Ap4A (1 pmol = 20 cpm), de la sérum-albumine bovine (0,4 mg/ml) et une solution d'enzyme diluée de façon appropriée en présence de 2 mg/ml de sérum-albumine bovine. Dans certains cas, l'activité a été suivie à l'aide de [^32P]K2HPO4.
Pour mesurer les vitesses initiales, de phosphorolyse, on a déposé des prélèvements de 2 µl sur des couches minces de polyéthylèneimine-cellulose contenant un indicateur fluorescent (foumies par MERCK) après 2, 4, 8 et 16 min de réaction.
Des standards d'Ap4A et d'ADP ont été ajoutés et les chromatogrammes ont été développés tout d'abord pendant 15 min dans le méthanol à 75 %, puis pendant 1 h dans du chlorure de lithium 0,85 M. Les valeurs Rf des composés standards étaient respectivement de 0,15 (Ap4A) et 0,25 (ADP), la valeur Rf du phosphate était de 0,55. Les taches d'ADP visualisées sous lumière ultraviolette ont été découpées et immergées dans 5 ml de mélange de scintillation et la radioactivité a été mesurée. Au cours des différentes étapes de purification, l'enzyme a été testée en l'absence de radioactivité; les fractions actives ont été afors directement identifiées sur les chromatogrammes sous lumière ultraviolette.
La dégradation enzymatique de l'Ap4A par l'enzyme selon l'invention, c'est-à-dire l'Ap4A-phosphorylase, a été caractérisée par identification des produits de ladite réaction de dégradation par co-migration avec des composés standards authentiques sur des couches minces de polyéthylèneimine-cellulose. Cette identification a été confirmée sur une colonne de Lichrosorb RP-18 (MERCK) en utilisant un système HPLC (chromatographie liquide haute performance) avec une élution isocratique par du phosphate de potassium 25 mM, pH 5,3 selon la méthode de BREVET et al. décrite dans J.Biol.Chem. (1982), 257. 14613-14615. La colonne de chromatographie a été utilisée avec une pompe modèle 112, un injecteur modèle 210 et un détecteur d'absorbance modèle 160 (matériel BECKMAN), en opérant à 254 nm avec une sensibilité de 0,002 unité d'absorbance pleine échelle.

AMP-désaminase = target: T2, AMP-désaminase (Rattus norvegicus, UniProt P10759); settings: enzyme from rat muscle; cited from earlier work
T2 construct: host or cells: rat muscle
T2 sequence (P10759 1-747): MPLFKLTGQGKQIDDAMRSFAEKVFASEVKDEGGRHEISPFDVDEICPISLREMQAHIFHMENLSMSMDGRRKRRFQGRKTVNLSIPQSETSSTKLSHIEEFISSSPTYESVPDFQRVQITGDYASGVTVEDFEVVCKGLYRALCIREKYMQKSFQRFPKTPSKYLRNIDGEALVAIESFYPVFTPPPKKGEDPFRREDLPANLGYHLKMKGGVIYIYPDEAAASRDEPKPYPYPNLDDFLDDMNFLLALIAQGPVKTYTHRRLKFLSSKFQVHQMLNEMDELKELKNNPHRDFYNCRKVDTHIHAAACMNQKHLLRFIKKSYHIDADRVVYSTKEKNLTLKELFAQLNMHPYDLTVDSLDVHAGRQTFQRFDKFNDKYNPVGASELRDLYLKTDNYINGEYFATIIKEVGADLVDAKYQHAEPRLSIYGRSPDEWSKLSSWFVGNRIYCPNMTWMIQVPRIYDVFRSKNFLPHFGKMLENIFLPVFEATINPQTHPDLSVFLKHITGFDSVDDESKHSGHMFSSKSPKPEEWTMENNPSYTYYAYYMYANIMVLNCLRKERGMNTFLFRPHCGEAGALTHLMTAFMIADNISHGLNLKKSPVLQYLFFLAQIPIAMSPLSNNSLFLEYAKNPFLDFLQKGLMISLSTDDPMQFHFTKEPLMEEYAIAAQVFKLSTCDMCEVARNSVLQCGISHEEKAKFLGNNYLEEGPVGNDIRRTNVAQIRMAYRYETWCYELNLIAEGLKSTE

GMP-réductase [2] = target: T3, GMP-réductase (Homo sapiens, UniProt P36959); settings: enzyme from human erythrocytes; cited from earlier work
T3 construct: host or cells: human erythrocytes
T3 sequence (P36959 1-345): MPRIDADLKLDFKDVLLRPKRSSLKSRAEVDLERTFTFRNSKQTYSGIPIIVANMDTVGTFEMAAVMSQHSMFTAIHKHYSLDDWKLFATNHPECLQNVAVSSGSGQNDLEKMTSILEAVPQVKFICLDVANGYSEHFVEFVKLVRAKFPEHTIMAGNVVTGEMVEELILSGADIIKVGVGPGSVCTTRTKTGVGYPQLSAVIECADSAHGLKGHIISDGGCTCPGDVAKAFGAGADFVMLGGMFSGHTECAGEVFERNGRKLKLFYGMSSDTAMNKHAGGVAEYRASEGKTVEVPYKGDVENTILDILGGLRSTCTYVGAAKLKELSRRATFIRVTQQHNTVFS

GMP-réductase [3] = settings: enzyme from Artemia; cited from earlier work
Ap4A-phosphorylase [4] = target: T1, Ap4A-phosphorylase; test: Effect of divalent metal ions on initial rates of Ap4A phosphorolysis; format: biochemical
Experimental: Les vitesses initiales de la phosphorolyse de l'Ap4A ont été mesurées dans un milieu contenant 50 mM Hepes/KOH (pH 8,2); 1 mM de 2-mercaptoéthanol; 2 % de glycérol et 0,4 mg/ml de sérum-albumine bovine, 5 mM K2HPO4; 500 uM [^3H] Ap4A et différentes concentrations de chlorures de manganèse, de magnésium, de calcium, de cobalt ou de cadmium.
Les résultats obtenus sont indiqués sur le graphe de la figure 2 annexée sur lequel on a porté en ordonnées les vitesses initiales de phosphorolyse de l'Ap4A exprimées en pourcentages de la vitesse observée avec 500 uM MnCl2-(36 s-') et en abscisses la concentration en ions métalliques exprimée en mM.
Les différentes courbes correspondent respectivement aux chlorures ci-après : courbe A (O - O) = MnCl2 [formula] [formula] [formula] [formula]

[5] = substrate: Nc1ncnc2c1ncn2[C@@H]1O[C@H](COP(=O)(O)OS(=O)(=O)O)[C@@H](O)[C@H]1O; test: purified protein, by the assay type; settings: other: NDP-P* exchange at optimum pH, 37°C
[6] = substrate: Nc1ncnc2c1ncn2[C@@H]1O[C@H](COP(=O)(O)OP(=O)(O)OP(=O)(O)OP(=O)(O)OC[C@H]2O[C@@H](n3cnc4c(N)ncnc43)[C@H](O)[C@@H]2O)[C@@H](O)[C@H]1O; test: Ap4A-phosphorylase activity: initial rates of phosphorolysis of Ap4A and related substrates (PEI-cellulose TLC, radioactivity); format: biochemical, Saccharomyces cerevisiae; settings: other: 37°C, 50 mM Hepes/KOH pH 8,2, 500 µM MnCl2, 10 mM K2HPO4, 1 mM 2-mercaptoéthanol, 2 % glycérol, pH 8.2
Experimental: as §1
Pour mesurer les vitesses initiales, de phosphorolyse, on a déposé des prélèvements de 2 µl sur des couches minces de polyéthylèneimine-cellulose contenant un indicateur fluorescent (foumies par MERCK) après 2, 4, 8 et 16 min de réaction. […]
La dégradation enzymatique de l'Ap4A par l'enzyme selon l'invention, c'est-à-dire l'Ap4A-phosphorylase, a été caractérisée par identification des produits de ladite réaction de dégradation par co-migration avec des composés standards authentiques sur des couches minces de polyéthylèneimine-cellulose. […] La colonne de chromatographie a été utilisée avec une pompe modèle 112, un injecteur modèle 210 et un détecteur d'absorbance modèle 160 (matériel BECKMAN), en opérant à 254 nm avec une sensibilité de 0,002 unité d'absorbance pleine échelle.

[7] = substrate: Nc1ncnc2c1ncn2[C@@H]1O[C@H](COP(=O)(O)OP(=O)(O)O)[C@@H](O)[C@H]1O; test: NDP-P* exchange reaction catalysed by Ap4A-phosphorylase; format: biochemical, Saccharomyces cerevisiae; settings: other: NDP-P* exchange at optimum pH, 37°C
Text: (§2) On a estimé les constantes de Michaelis Km et les vitesses d'échange pour différents NDP au pH optimum, lequel varie en fonction des substrats. Les résultats obtenus sont rassemblés dans le tableau Il ci-après ainsi que les conditions expérimentales.

[8] = substrate: Nc1ccn([C@@H]2O[C@H](COP(=O)(O)OP(=O)(O)O)[C@@H](O)[C@H]2O)c(=O)n1; test: as above; format: biochemical, Saccharomyces cerevisiae; settings: other: NDP-P* exchange at optimum pH, 37°C
Text: as §2

[9] = substrate: O=c1ccn([C@@H]2O[C@H](COP(=O)(O)OP(=O)(O)O)[C@@H](O)[C@H]2O)c(=O)[nH]1; test: as above; format: biochemical, Saccharomyces cerevisiae; settings: other: NDP-P* exchange at optimum pH, 37°C
Text: as §2

[10] = substrate: Nc1nc2c(ncn2[C@@H]2O[C@H](COP(=O)(O)OP(=O)(O)O)[C@@H](O)[C@H]2O)c(=O)[nH]1; test: as above; format: biochemical, Saccharomyces cerevisiae; settings: other: NDP-P* exchange at optimum pH, 37°C
Text: as §2

## Nc1ncnc2c1ncn2[C@@H]1O[C@H](COP(=O)(O)OP(=O)(O)OP(=O)(O)OP(=O)(O)OC[C@H]2O[C@@H](n3cnc4c(N)ncnc43)[C@H](O)[C@@H]2O)[C@@H](O)[C@H]1O (single isomer, unassigned; diad) [Ap4A, 5',5"'-P^1,P^4-diadénosine-tétraphosphate]
Ap4A-phosphorylase [1]; Ap4A saturant
  vitesse de la réaction de phosphorolyse: 36 s⁻¹
Ap4A-phosphorylase [1]
  substrat de l'Ap4A-phosphorylase (behaviour as substrate): substrat préféré
AMP-désaminase
  effect on activité de l'AMP-désaminase: double l'activité

## Nc1ncnc2c1ncn2[C@@H]1O[C@H](COP(=O)(O)OP(=O)(O)OP(=O)(O)OP(=O)(O)OP(=O)(O)OC[C@H]2O[C@@H](n3cnc4c(N)ncnc43)[C@H](O)[C@@H]2O)[C@@H](O)[C@H]1O (single isomer, unassigned; diad) [Ap5A, Diadénosine pentaphosphate]
Ap4A-phosphorylase [1]
  substrat de l'Ap4A-phosphorylase (behaviour as substrate): substrats
  vitesses de phosphorolyse, % du taux observé pour l'Ap4A: 50%

## Nc1ncnc2c1ncn2[C@@H]1O[C@H](COP(=O)(O)OP(=O)(O)OP(=O)(O)OC[C@H]2O[C@@H](n3cnc4c(N)ncnc43)[C@H](O)[C@@H]2O)[C@@H](O)[C@H]1O (single isomer, unassigned; diad) [Ap,A, Diadénosine triphosphate]
Ap4A-phosphorylase [1]
  substrat de l'Ap4A-phosphorylase (behaviour as substrate): ne soient pas des substrats

## Nc1nc2c(ncn2[C@@H]2O[C@H](COP(=O)(O)OP(=O)(O)OP(=O)(O)OP(=O)(O)OC[C@H]3O[C@@H](n4cnc5c(=O)[nH]c(N)nc54)[C@H](O)[C@@H]3O)[C@@H](O)[C@H]2O)c(=O)[nH]1 [Gp4G, Diguanosine tétraphosphate]
Ap4A-phosphorylase [1]
  substrat de l'Ap4A-phosphorylase (behaviour as substrate): substrats
  vitesses de phosphorolyse, % du taux observé pour l'Ap4A: 40%
GMP-réductase [2]
  effect on GMP-réductase: effet positif spécifique
GMP-réductase [3]
  effect on GMP-réductase: effet positif spécifique

## Nc1ncnc2c1ncn2[C@@H]1O[C@H](COP(=O)(O)OP(=O)(O)OP(=O)(O)OP(=O)(O)O)[C@@H](O)[C@H]1O [p4A, Adénosine tétraphosphate]
Ap4A-phosphorylase [1]
  substrat de l'Ap4A-phosphorylase (behaviour as substrate): ne soient pas des substrats

## MnCl2
Ap4A-phosphorylase [4]; 500 uM MnCl2, 5 mM K2HPO4, 500 uM [3H]Ap4A, pH 8,2 (100 % reference of figure 2)
  vitesse initiale de phosphorolyse de l'Ap4A: 36 s-'
Ap4A-phosphorylase [4]; chlorides of Mn, Mg, Ca, Co, Cd at various concentrations (figure 2)
  activity of metal ions in supporting phosphorolyse de l'Ap4A: les plus actifs

## phosphate
Ap4A-phosphorylase [1]; phosphorolysis of Ap4A, read-out: Km du phosphate
  Km: 1000 µM

## pyrophosphate
Ap4A-phosphorylase [1]
  conversion de l'Ap4A when phosphate is replaced: aucune conversion

## sulfate
Ap4A-phosphorylase [1]
  conversion de l'Ap4A when phosphate is replaced: aucune conversion

B1: Ap4A-phosphorylase (Saccharomyces cerevisiae S288C) (protein)
chain: T1 sequence (P16550 1-321)
notes: l'Ap4A phosphorylase est constituée d'une seule chaîne; endogenous in cells; host or cells: Saccharomyces cerevisiae yeast cells; enzyme purified by ammonium sulfate, DEAE-Sephacel, Sephadex G-100, hydroxyapatite and Sephadex G-75 superfine
[5]
  Km: 500 µM
[6]
  Km: 60 µM
[7]
  Km: 740 µM
[8]
  Km: 2800 µM
[9]
  Km: 3700 µM
[10]
  Km: 700 µM
